# Values quoted from earlier work in patent publication US20050272687A1, “Stable S-adenosyl-l-methionine” (priority 2004, published 2005).
# What was measured:
# [1] = system: S-adenosyl-1-methionine-dependent methyltransferases
# [2] = system: nucleolar 2-O-methyltransferase
# [3] = in vivo
# [4] = same conditions as in example 10 (room temperature, light, closed bottle), after 4 months
# [5] = during the course of the clinical trial
# [6] = system: alcoholic liver cirrhosis; conditions: oral; as compared with a placebo treated group
# [7] = system: beta-adrenergic
smiles,measurement,setting,value
"C[S@@+](CC[C@@H](N)C(=O)O)C[C@H]1O[C@@H](n2cnc3c(N)ncnc32)[C@H](O)[C@@H]1O (racemic) [(+)-SAM, (R,S)-S-adenosyl-1-methionine]",inhibition of enzyme-catalyzed transmethylation reactions,[1],potent inhibitor
"C[S@@+](CC[C@H](N)C(=O)O)C[C@H]1O[C@@H](n2cnc3c(N)ncnc32)[C@H](O)[C@@H]1O [(S,S)-S-adenosyl-1-methionine]","tightness of enzyme binding relative to (R,S)-S-adenosyl-1-methionine",[2],10 fold
"C[S+](CC[C@H](N)C(=O)O)C[C@H]1O[C@@H](n2cnc3c(N)ncnc32)[C@H](O)[C@@H]1O.C[S+](CC[C@H](N)C(=O)O)C[C@H]1O[C@@H](n2cnc3c(N)ncnc32)[C@H](O)[C@@H]1O.O=S(=O)([O-])CCCCS(=O)(=O)[O-] (stereo partly drawn) [S-adenosyl-1-methionine 1,4 butanedisulfonate]",oral absorption compared with other salts,[3],better absorbed orally than any other salts
same,deterioration,[4],43.9%
C[S+](CC[C@H](N)C(=O)O)C[C@H]1O[C@@H](n2cnc3c(N)ncnc32)[C@H](O)[C@@H]1O.Cc1ccc(S(=O)(=O)[O-])cc1 (stereo partly drawn) [S-adenosyl-1-methionine tosylate],deterioration,[4],92.9%
C[S+](CC[C@H](N)C(=O)[O-])C[C@H]1O[C@@H](n2cnc3c(N)ncnc32)[C@H](O)[C@@H]1O (stereo partly drawn) [S-adenosyl-1-methionine],"(R,S) S-adenosyl-1-methionine share after epimerization",[5],55%
same,"(S,S) S-adenosyl-1-methionine share after epimerization",[5],45%
same,overall mortality and/or progression to liver transplant,[6],29% vs 12%
CC(C)NCC(O)COc1cccc2ccccc12 (stereo not drawn) [propranolol],potency of L-form relative to D-enantiomer,[7],100 times
